Results as given in patent US20050158374A1, “Compositions and dosage forms for enhanced absorption of metformin” (priority 2003, published 2005).
≈ marks a conversion by molar mass, not a printed value. Structures can show the parent of a compound that is named as a salt. Where two headings read alike, the source gives them in different places. Blank lines part the entries; values can stand above or below the compound they belong to.

How the values were obtained:
[1] = cited from earlier work
[2] = in vivo
[3] = for macroscopic evaluation of the G.I. tract for signs of irritation: end of oral gavage study; for time of plasma concentration maximum after treatment: rat, in vivo, po
[4] = in vivo colonic absorption using flushed ligated colonic model in rats; details: 10 mg/rat intubated into ligated colon
[5] = conductivity of complexes in aqueous solutions; details: aqueous solution pH≅5.8, 23° C.
in vivo [6] = details: Sprague-Dawley, rat, plasma, iv, 2 mg/kg
[7] = intravenous administration of metformin HCl to rats; details: for Metformin base plasma concentration, Average / Metformin base plasma concentration, Rat2 / Metformin base plasma concentration, Rat3 / Metformin base plasma concentration, Rat1: 2 mg/kg intravenously
in vivo [8] = details: rat, po, 40 mg/kg
in vivo [9] = details: male, Sprague-Dawley, rat, plasma, other: intracolonic bolus, ligated colon, 10 mg/rat

Compound: CCCCCCCCCCCCCC(=O)O [myristic (14), myristic acid]
Solubility in Acetic acid [1]: 102 mg/mL (≈ 447 mM)
Solubility in Acetone [1]: 159 mg/mL (≈ 696 mM)
Solubility in Acetonitrile [1]: 18 mg/mL (≈ 78.8 mM)
Solubility in Benzene [1]: 292 mg/mL (≈ 1280 mM)
Solubility in Chloroform [1]: 325 mg/mL (≈ 1420 mM)
Solubility in Cyclohexanne [1]: 215 mg/mL (≈ 941 mM)
Solubility in Ethanol 95% [1]: 189 mg/mL (≈ 828 mM)
Solubility in Methanol [1]: 173 mg/mL (≈ 758 mM)

Compound: CCCCCCCCCCCC(=O)O.CN(C)C(=N)N=C(N)N [Metformin laurate]
Area Under the Curve (0-4 hrs, based on 1 mg base/rat) [2]: 674.5 ng · h/mL-mg
macroscopic evaluation of the G.I. tract for signs of irritation [3]: No irritation
time of plasma concentration maximum after treatment [3]: about 1 hour

Compound: CCCCCCCCCCCC(=O)O [Lauric (12), lauric acid]
Solubility in Acetic acid ([1]; 20° C.): 818 mg/mL (≈ 4080 mM)
Solubility in Acetone ([1]; 20° C.): 605 mg/mL (≈ 3020 mM)
Solubility in Acetonitrile ([1]; 20° C.): 76 mg/mL (≈ 379 mM)
Solubility in Benzene ([1]; 20° C.): 936 mg/mL (≈ 4670 mM)
Solubility in Chloroform ([1]; 20° C.): 830 mg/mL (≈ 4140 mM)
Solubility in Cyclohexanne ([1]; 20° C.): 680 mg/mL (≈ 3390 mM)
Solubility in Ethanol 95% ([1]; 20° C.): 912 mg/mL (≈ 4550 mM)
Solubility in Methanol ([1]; 20° C.): 1200 mg/mL (≈ 5990 mM)

Area Under the Curve (0-4 hrs, based on 1 mg base/rat) [4]: 408.3 ng · h/mL-mg
Conductivity ([5]; metformin concentration 5 mM): 136 μS/cm
Conductivity ([5]; metformin concentration 10 mM): 235 μS/cm
Conductivity ([5]; metformin concentration 20 mM): 405 μS/cm
Compound: Metformin oleate

Compound: CN(C)C(=N)N=C(N)N [Metformin HCl, metformin hydrochloride]
concentration at 0 h (in vivo [6]): 0 ng/mL
concentration at 1 h (in vivo [6]): 35.5 ng/mL
concentration at 2 h (in vivo [6]): 0 ng/mL
concentration at 3 h (in vivo [6]): 0 ng/mL
Metformin base plasma concentration, Average ([7]; Time 0 h): 0.0 ng/mL
Metformin base plasma concentration, Rat2 ([7]; Time 0 h): 0 ng/mL
Metformin base plasma concentration, Rat3 ([7]; Time 0 h): 0 ng/mL
Metformin base plasma concentration, Average ([7]; Time 2 min): 2483.3 ng/mL
Metformin base plasma concentration, Rat1 ([7]; Time 2 min): 1430 ng/mL
Metformin base plasma concentration, Rat2 ([7]; Time 2 min): 2370 ng/mL
Metformin base plasma concentration, Rat3 ([7]; Time 2 min): 3650 ng/mL
Metformin base plasma concentration, Average ([7]; Time 0.5 h): 229.2 ng/mL
Metformin base plasma concentration, Rat1 ([7]; Time 0.5 h): 262 ng/mL
Metformin base plasma concentration, Rat2 ([7]; Time 0.5 h): 331 ng/mL
Metformin base plasma concentration, Rat3 ([7]; Time 0.5 h): 94.7 ng/mL
Metformin base plasma concentration, Average ([7]; Time 1 h): 30.4 ng/mL
Metformin base plasma concentration, Rat3 ([7]; Time 1 h): 25.2 ng/mL
Metformin base plasma concentration, Average ([7]; Time 1.5 h): 22.1 ng/mL
Metformin base plasma concentration, Rat1 ([7]; Time 1.5 h): 0 ng/mL
Metformin base plasma concentration, Rat2 ([7]; Time 1.5 h): 66.3 ng/mL
Metformin base plasma concentration, Rat3 ([7]; Time 1.5 h): 0 ng/mL
Metformin base plasma concentration, Average ([7]; Time 2 h): 0.0 ng/mL
Metformin base plasma concentration, Rat2 ([7]; Time 2 h): 0 ng/mL
Metformin base plasma concentration, Rat3 ([7]; Time 2 h): 0 ng/mL
Metformin base plasma concentration, Average ([7]; Time 3 h): 0.0 ng/mL
Metformin base plasma concentration, Rat2 ([7]; Time 3 h): 0 ng/mL
Metformin base plasma concentration, Rat3 ([7]; Time 3 h): 0 ng/mL
Area Under the Curve (0-4 hrs, based on 1 mg base/rat) ([7]; i.v.): 692.5 ng · h/mL-mg
macroscopic evaluation of the G.I. tract for signs of irritation [3]: No irritation
time of plasma concentration maximum after treatment [3]: about 1 hour
Cmax (in vivo [8]): ~4080 ng/mL
Area Under the Curve (0-4 hrs, based on 1 mg base/rat) [4]: 29.2 ng · h/mL-mg
concentration at 0 h (in vivo [9]): 0 ng/mL

Compound: CCCCCCCCCC(=O)O.CN(C)C(=N)N=C(N)N [Metformin caprate]
Area Under the Curve (0-4 hrs, based on 1 mg base/rat) [2]: 548.0 ng · h/mL-mg
